Assay results published in patent US12357603B2, “Acyl sulfonamides for treating cancer” (Bayer Aktiengesellschaft, priority 2019, dated 2025).
pEC50, pIC50: −log10 of the molar value. Where two headings read alike, the source gives them in different places.

Columns and labels:
[1] = biological target: Recombinant human His-tagged Kat6a protein (amino acids 194-810) (Homo sapiens (Human), UniProt Q92794); assay: Kat6a activity assay (TR-FRET, acetylation of biotinylated Histone-H4-derived peptide); format: biochemical; conditions: 60 mins at 22° C., read-out: KAT6A-DPF/HAT domain IC50 [mol/l] (arithmetic mean)
Recombinant human His-tagged Kat6a protein (amino acids 194-810), sequence (Q92794 194-810): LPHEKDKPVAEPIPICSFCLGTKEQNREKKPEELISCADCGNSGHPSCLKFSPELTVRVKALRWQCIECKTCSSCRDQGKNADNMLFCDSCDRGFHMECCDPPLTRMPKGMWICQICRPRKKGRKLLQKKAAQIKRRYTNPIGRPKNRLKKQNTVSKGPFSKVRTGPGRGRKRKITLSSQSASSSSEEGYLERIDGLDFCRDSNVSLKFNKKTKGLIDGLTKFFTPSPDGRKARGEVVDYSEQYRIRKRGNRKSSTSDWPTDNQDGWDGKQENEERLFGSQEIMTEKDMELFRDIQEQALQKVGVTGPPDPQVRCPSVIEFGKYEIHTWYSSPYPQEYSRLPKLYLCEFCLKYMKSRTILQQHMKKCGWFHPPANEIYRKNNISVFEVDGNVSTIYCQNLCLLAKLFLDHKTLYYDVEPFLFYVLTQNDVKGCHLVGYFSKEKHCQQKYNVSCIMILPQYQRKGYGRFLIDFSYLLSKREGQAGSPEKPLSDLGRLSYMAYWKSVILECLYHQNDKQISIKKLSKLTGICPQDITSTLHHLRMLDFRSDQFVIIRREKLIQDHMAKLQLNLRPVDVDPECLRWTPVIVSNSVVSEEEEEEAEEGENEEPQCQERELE
Procedure, shortened: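 TR-FRET read-out of H4 K8 acetylation, using anti-acetyl-K8 antibody and streptavidin acceptor, after anacardic acid stop; IC50 from four-parameter regression normalized to DMSO. Reaction: recombinant human Kat6a aa 194-810 (insect-cell derived), 220 nM H4 1-24 peptide, 600 nM acetyl-CoA, pH 8, 22 °C, 60 min, compounds 0.01-20 μM.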

[2] = biological target: Recombinant human GST-tagged Kat6b protein (431-end); assay: Kat6b activity assay (TR-FRET, acetylation of biotinylated Histone-H4-derived peptide); format: biochemical; conditions: 30 mins at 22° C., read-out: KAT6B activity assay IC50 [mol/l] (arithmetic mean)
[3] = test system: ESR1 transcription (luciferase signal in MVLN cells); assay: Repression of ESR1 transcription, luciferase reporter in MVLN cells; format: cell-based; conditions: inhibition of luciferase signal in MVLN cells, arithmetic mean
Procedure, shortened: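 Luminescence from an ER-driven Vitellogenin A2 element–luciferase reporter was measured after 24 h of treatment of MVLN cells, in duplicate wells. Alamar Blue (2 h, 530/590 nm) served as a cell-density control.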

ZR-75-1 cells = assay: Proliferation assay ZR-75-1 (Alamar Blue, 144 h); format: cell-based; conditions: arithmetic mean, read-out: ZR75-1 proliferation assay, EC50 [M] (arithmetic mean)
Procedure, shortened: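 Alamar Blue fluorescence (590 nm, 2 h reagent step) measured viability after 144 h compound exposure at 37 °C, 5% CO2. Compounds spanned 2.0×10E-5 to 2.0×10E-9 M in 9 dilutions at 0.2% DMSO, in triplicate, added 24 h after plating 3000 cells/well in RPMI 1640 plus 2.5% FBS.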

MDA-MB-436 cells = assay: Proliferation assay MDA-MB-436, negative control cell line (Alamar Blue, 144 h); format: cell-based; conditions: arithmetic mean
Procedure, shortened: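 Viability read as Alamar Blue fluorescence (590 nm, 2 h) after 144 h compound exposure at 37 °C, 5% CO2. Cells seeded at 3000 per well in 2.5% FBS DMEM/Ham's F12, dosed a day later over 2.0×10E-9–2.0×10E-5 M in 9 steps with 0.2% DMSO, in triplicate.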

LCLC-97TM1 cells = assay: Proliferation assay LCLC-97TM1 (Alamar Blue, 144 h); format: cell-based; conditions: Homo sapiens, LCLC97TM1, large cell lung carcinoma, read-out: proliferation assays
Experimental: (§1) Assessment of the Anti-Proliferative Effect of Compounds in Different Cell Lines
(§2) To determine further cancer indications that respond to treatment with KAT6A or KAT6B3 inhibitors various cell lines carrying a KAT6A and/or KAT6B3 focal amplification or high KAT6A and/or KAT6B3 protein expression were used for proliferation assays with selected compounds.
(§3) 24 hours later, cells were treated with compounds (stock solution, 10 mM in DMSO) using the HP D300 Digital Dispenser in a concentration range of 2.0×10E-5 M to 2.0×10E-9 M in a single-dot curve with 9 dilutions and a DMSO concentration of 0.2%. Each sample was prepared as triplicate and rim wells were excluded. Plates were incubated at 37° C. and 5% CO2 for 144 h. Cell viability was measured by adding 10 μL of Alamar Blue Reagent (Invitrogen #DAL 1100) and plates were incubated for 2 h at 37° C. and 5% CO2. Fluorescence was measured at 590 nm wavelength with a Tecan Spark or Victor X3 MTP-Reader (PerkinElmer).

DMS 53 cells = assay: Proliferation assay DMS 53 (Alamar Blue, 144 h); format: cell-based; conditions: Homo sapiens, DMS53, small cell lung cancer, read-out: proliferation assays
Experimental: as §1, §2, §3

DMS 114 cells = assay: Proliferation assay DMS 114 (Alamar Blue, 144 h); format: cell-based; conditions: Homo sapiens, DMS114, small cell lung cancer, read-out: proliferation assays
Experimental: as §1, §2, §3

LNCAP cells = assay: Proliferation assay LNCAP (Alamar Blue, 144 h); format: cell-based; conditions: Homo sapiens, prostate carcinoma, 10 nM R1881, read-out: proliferation assays
Experimental: as §1, §2, §3

JMSU-1 cells = assay: Proliferation assay JMSU-1 (Alamar Blue, 144 h); format: cell-based; conditions: JMSU1, bladder carcinoma, read-out: proliferation assays
Experimental: as §1, §2, §3

THP-1 cells = assay: Proliferation assay THP-1 (Alamar Blue, 144 h); format: cell-based; conditions: Homo sapiens, THP1, acute monocytic leukemia, read-out: proliferation assays
Experimental: as §1, §2, §3

CAMA-1 cells = assay: Proliferation assay CAMA-1 (Alamar Blue, 144 h); format: cell-based; conditions: Homo sapiens, CAMA1, breast adenocarcinoma, read-out: proliferation assays
Experimental: as §1, §2, §3

T47D cells = assay: Proliferation assay T47D (Alamar Blue, 144 h); format: cell-based; conditions: Homo sapiens, breast ductal carcinoma, read-out: proliferation assays
Experimental: as §1, §2, §3

EFM-19 cells = assay: Proliferation assay EFM-19 (Alamar Blue, 144 h); format: cell-based; conditions: Homo sapiens, EFM19, breast carcinoma, read-out: proliferation assays
Experimental: as §1, §2, §3

COLO 684 cells = assay: Proliferation assay COLO 684 (Alamar Blue, 144 h); format: cell-based; conditions: Homo sapiens, COLO684, uterus adenocarcinoma, read-out: proliferation assays
Experimental: as §1, §2, §3

Compound	pIC50 [1]	pIC50 [2]	IC50 [3]	EC50 (ZR-75-1 cells)	EC50 (MDA-MB-436 cells)	pEC50 (LCLC-97TM1 cells)	pEC50 (DMS 53 cells)	pEC50 (DMS 114 cells)	pEC50 (LNCAP cells)	pEC50 (JMSU-1 cells)	pEC50 (THP-1 cells)	pEC50 (CAMA-1 cells)	pEC50 (T47D cells)	pEC50 (EFM-19 cells)	pEC50 (COLO 684 cells)	IC50 ([3]; Homo sapiens, MVLN)	EC50 (ZR-75-1 cells; Homo sapiens, ZR-75-1, 144 h)	EC50 (MDA-MB-436 cells; Homo sapiens, MDA-MB-436, 144 h)
CCOc1ccccc1S(=O)(=O)NC(=O)c1cc2ccc(N(C)C)cc2o1 [Example 19, 6-(Dimethylamino)-N-(2-ethoxybenzene-1-sulfonyl)-1-benzofuran-2-carboxamide]	7.07	7.17	42.2 nM	5.96e-08 M	> 20000 nM	6.35	6.89	6.87	5.79	7.15	7.02	6.57	6.77	6.98	6.81	–	–	–
CCCOc1ccccc1S(=O)(=O)NC(=O)c1cc2ccc(N(C)C)cc2o1 [Example 23, 6-(Dimethylamino)-N-(2-propoxybenzene-1-sulfonyl)-1-benzofuran-2-carboxamide]	7.10	7.00	–	–	–	6.80	6.44	6.69	< 4.70	–	–	6.38	6.71	6.81	7.03	98 nM	2.34e-08 M	> 20000 nM
